Source: PubChem BioAssay (NCI)
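In this assay, cells in 96-well plates receive the compound at five concentrations for 48 hours. Endpoints are linearly interpolated between the surrounding concentrations. TGI marks complete inhibition of growth.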

What was measured:
Experiment in all cases: NCI-60 cell line screen, 48 h
[1] = tested on: A549 NSCLC
[2] = tested on: NCI-H460 lung
[3] = tested on: RPMI-8226 leukemia
[4] = tested on: RXF 393 renal
[5] = tested on: OVCAR-5 ovarian
[6] = tested on: SK-MEL-5 melanoma
[7] = tested on: LOX IMVI melanoma
[8] = tested on: MDA-MB-435
[9] = tested on: CCRF-CEM leukemia
[10] = tested on: SK-MEL-28 melanoma
[11] = tested on: HCT-15 colon
[12] = tested on: MOLT-4 leukemia
[13] = tested on: M14 melanoma

Structure (SMILES)	TGI [1]	TGI [2]	TGI [3]	TGI [4]	TGI [5]	TGI [6]	TGI [7]	TGI [8]	TGI [9]	TGI [10]	TGI [11]	TGI [12]	TGI [13]
COC(=O)C1Cc2ccc(O)c(O)c2CN1 (configuration not stated)	> 100 µM	> 100 µM	68 µM	> 100 µM	70.3 µM	28.5 µM	28.4 µM	30.5 µM	> 100 µM	31 µM	87.1 µM	58.7 µM	29.7 µM
CC(O)C1(CNc2cc(Cl)nc(N)n2)CCCCC1 (configuration not stated)	> 100 µM	> 100 µM	> 100 µM	> 100 µM	> 100 µM	> 100 µM	> 100 µM	> 100 µM	> 100 µM	> 100 µM	> 100 µM	> 100 µM	> 100 µM
S=C1NC2=C(COc3ccccc32)C(c2ccc(Cl)cc2)N1 (configuration not stated)	48.2 µM		22.4 µM	37.4 µM	30.7 µM	30.5 µM	30.3 µM	58.2 µM	64.7 µM	46.8 µM		38.7 µM	34.5 µM
NC(N)=NS(=O)(=O)c1ccc(N/N=C2/CCOC2=O)cc1	> 100 µM	> 100 µM	> 100 µM	> 100 µM	> 100 µM	> 100 µM	> 100 µM	> 100 µM	> 100 µM	> 100 µM	> 100 µM	> 100 µM	> 100 µM
CCOC(=O)NN(C(=O)OCC)C(C(=O)C1=CCCCC1)N(NC(=O)OCC)C(=O)OCC	> 100 µM	> 100 µM	> 100 µM	> 100 µM	> 100 µM	> 100 µM	> 100 µM	> 100 µM		> 100 µM	> 100 µM	> 100 µM	> 100 µM
CCc1c2c(cc3c1CC1(C3)Cc3cc4c(c(C(=O)OC)c3C1)CCCC4)CCCC2 (configuration not stated)	> 100 µM		> 100 µM	> 100 µM	> 100 µM	> 100 µM	> 100 µM	> 100 µM	> 100 µM		> 100 µM	> 100 µM	> 100 µM
CCCCCCCCCCCCOP(=O)(O)OP(=O)(O)OCC1OC(n2ccc(N)nc2=O)CC1O (configuration not stated)	> 100 µM	> 100 µM	> 100 µM	> 100 µM	> 100 µM	> 100 µM	> 100 µM	> 100 µM	> 100 µM	> 100 µM	> 100 µM	> 100 µM	> 100 µM
Clc1cccc(-c2sc(-c3ccsc3)cc2Cc2ccsc2)c1	> 10 µM		> 10 µM	> 10 µM		> 10 µM	> 10 µM	> 10 µM	> 10 µM	> 10 µM	> 10 µM	> 10 µM	> 10 µM
COc1cc(-c2nc3ccc(N4CCN(C)CC4)cc3[nH]2)c(OC)c2[nH]c(COC(C)=O)nc12	> 100 µM	> 100 µM	> 100 µM	59.4 µM	> 100 µM	> 100 µM	96.4 µM	> 100 µM	> 100 µM	> 100 µM	> 100 µM	> 100 µM	35 µM
CC12C3C4C1C1C2C3C41CO (configuration not stated)	> 100 µM	> 100 µM		> 100 µM	> 100 µM	> 100 µM	> 100 µM	> 100 µM	> 100 µM	> 100 µM	> 100 µM	> 100 µM	> 100 µM
O=C1CSC(c2c[nH]c3ccccc23)N1c1ccc(Cl)cc1 (configuration not stated)	> 100 µM	> 100 µM	> 100 µM	> 100 µM	> 100 µM	> 100 µM		> 100 µM		> 100 µM	> 100 µM	> 100 µM	> 100 µM
O=[N+]([O-])C(/C=C(\Cl)[N+](=O)[O-])=C1Nc2ccccc2N1	> 100 µM	> 100 µM	> 100 µM	95.9 µM		> 100 µM	> 100 µM	> 100 µM	97.5 µM	> 100 µM	> 100 µM	> 100 µM	> 100 µM
COC(=O)/C=C\C(C#N)(C#N)N=Cc1cccc(OC)c1	35.1 µM	40.8 µM	> 28 µM	9.62 µM	20.1 µM	31.4 µM	> 50.8 µM	13.5 µM	> 50.8 µM	29.4 µM	4.54 µM	17.7 µM	10.4 µM
S=C(N/N=C(\c1ccccc1)c1ccccn1)NC1CCCCC1	> 100 µM	> 100 µM	> 100 µM	> 100 µM	> 100 µM	> 100 µM	23.6 µM	> 100 µM	> 100 µM	> 100 µM	> 100 µM	> 100 µM	> 100 µM
COc1cccc(C23CCCC(C2)NCC3Br)c1OC (configuration not stated)	> 100 µM	> 100 µM	45.7 µM	> 100 µM	> 100 µM	13.1 µM	> 100 µM	> 100 µM	99.3 µM	> 100 µM	> 100 µM	> 100 µM	> 100 µM
COc1ccccc1Cc1ccc(C2C=CC3(CC(=O)C=C3C)C(=O)C2)o1 (configuration not stated)	> 100 µM	> 100 µM	39.2 µM	56.3 µM	> 100 µM	29 µM	34.9 µM	46.8 µM		> 100 µM	81.4 µM	34.1 µM	> 100 µM
OC1c2ccccc2CCC1CN1CCN(CCOC(c2ccc(F)cc2)c2ccc(F)cc2)CC1 (configuration not stated)	> 100 µM	48 µM	64.4 µM	19.3 µM		16.5 µM	27.1 µM	80.1 µM	15.1 µM	26.6 µM	23.4 µM	> 100 µM	27.6 µM
COC(=O)N1CC(=O)C(C(=O)NC23CC4CC(CC(C4)C2)C3)C1 (configuration not stated)	> 100 µM	> 100 µM	> 100 µM	> 100 µM	> 100 µM	> 100 µM		> 100 µM	> 100 µM	> 100 µM	> 100 µM	> 100 µM	> 100 µM
S=C(NCCc1ccccn1)N/N=C/c1ccccn1	7.68 µM	4.66 µM	0.186 µM	12.2 µM	> 100 µM	2.69 µM	22.5 µM	> 100 µM	< 0.01 µM	> 100 µM	> 100 µM		3.39 µM
